Measured values from patent publication US9089532B2, “Stable dosage form of phenylalanine derivatives” (Wilex AG, priority 2004, dated 2015).

What was measured:
Assay type in all cases: physicochemical
[1] = Preliminary testing: solubility of WX-UK1 in solvents and solvent mixtures; settings: in polyols, for example diols, and in mixtures of polyol/alcohol and water
Excerpt: Both solvents are additionally suitable for parenteral administration of active ingredients.
FIG. 1 is a Table showing the maximum solubility of WX-UK1 in various solvents and solvent mixtures.

[2] = Stability study at 40° C./75% RH of the unbuffered PG/EtOH/water formulation (impurity content, pH value); settings: 40 mg/ml in PG/ethanol/water, stored at 40° C., 2-12 weeks
Experimental: At the same time, the pH value of the formulation rose from 5.1 to 8.7 over a period of 12 weeks (FIG. 1).
0.4 ml of propylene glycol (PG) and 0.1 ml of ethanol were added in succession to 40 mg of WX-UK1. […] The remaining water (approx. 0.2 ml) was then added. The solution was then stored at 40° C. and the pH value and purity of the solution were in each case analysed after a period of 2, 4, 6, 8 and 12 weeks. To this end, 250 μl of the WX-UK1 solution were transferred into a 100 ml measuring flask and made up with water/acetonitrile (50:50 vol/vol) to the graduation mark (concentration: approx. 0.1 mg/ml of WX-UK1). 20 μl of this dilution were then analysed by means of a stability-indicating HPLC method analysed (see Annex). pH value-analysis of the WX-UK1 solution was carried out by means of a potentiometric method at 20-25° C.

[3] = pH-dependency of active ingredient breakdown at 60° C.; settings: ethanol/water 1:1, 60° C., up to 48 h
Experimental: The pH-dependency of active ingredient breakdown (WX-UK1) was investigated at three different pH values with heat treatment at 60° C. by dissolving 2.5 mg of WX-UK1 in 1 ml of ethanol/water (1:1 vol/vol). This solution was aliquoted into three vessels. One aliquot was adjusted to pH 2 by addition of 20 μl of 1 N hydrochloric acid, a second aliquot was adjusted to pH 11 by addition of 20 μl of 2 N sodium hydroxide solution and the third aliquot was left at a neutral pH. After incubation, the solutions were analysed at defined points in time (0, 5, 12 and 48 h) by means of a stability-indicating HPLC method.

[4] = Stability of sodium acetate-buffered solutions of various molarities at 60° C.; settings: buffering the formulation with sodium acetate pH 5, 60° C., relative to unbuffered formulation
Experimental: The stability study was carried out at 60° C. in order to achieve accelerated breakdown of WX-UK1 (FIG. 5). The WX-UK1 peak area percentage, determined by a stability-indicating HPLC method, was evaluated.

[5] = Earlier investigations: addition of phosphate buffer to WX-UK1 solutions

solubility [1]: very good solubility | stability (breakdown, HPLC) ([3]; acidic pH (pH 2)): remained stable | stability (breakdown, HPLC) ([3]; neutral or basic pH (pH 11)): moderate to rapid breakdown | precipitate formation [5]: formation of a precipitate
SMILES: CCOC(=O)N1CCN(C(=O)[C@H](Cc2cccc(C(=N)N)c2)NS(=O)(=O)c2c(C(C)C)cc(C(C)C)cc2C(C)C)CC1 [WX-UK1, Nα-(2,4,6-triisopropylphenylsulfonyl)-3-amidino-(L)-phenylalanine-4-ethoxycarbonylpiperazide]
breakdown in relation to pH value of the solution [2]: the higher is the pH value of the solution, the faster WX-UK1 breaks down | rate of breakdown [4]: considerable reduction in the rate of breakdown
